# Results reported in patent publication US12391737B2, “Soluble NPY2 receptor agonists” (Boehringer Ingelheim International GmbH, priority 2020, dated 2025).
# pKi: −log10 of the molar value. *1 amine or outer side, *2 acyl side, *3 side chain or, on linkers, in order; H or OH if unused. Where a SMILES comes first, the peptide text is derived from it. Side-chain parts run from the residue outwards. The star is where a group is joined. C18 diacid = O=C(O)CCCCCCCCCCCCCCCCC(=O)*; γGlu = O=C(O)[C@H](CCC(=O)[*:2])N[*:1]; Isovaleryl = CC(C)CC(=O)*; Ahx = NCCCCCC(=O)O
# How the values were obtained:
# [1] = molecular target: T1, Human Neuropeptide Y2 Receptor (Homo sapiens, UniProt P49146); assay: Radioligand binding competition assay (RLB); conditions: Table 3, 125I-PYY(1-36) competition; read-out: Ki
# T1 construct: purchased CHEMICON HTS066M
# T1 sequence (P49146 1-381): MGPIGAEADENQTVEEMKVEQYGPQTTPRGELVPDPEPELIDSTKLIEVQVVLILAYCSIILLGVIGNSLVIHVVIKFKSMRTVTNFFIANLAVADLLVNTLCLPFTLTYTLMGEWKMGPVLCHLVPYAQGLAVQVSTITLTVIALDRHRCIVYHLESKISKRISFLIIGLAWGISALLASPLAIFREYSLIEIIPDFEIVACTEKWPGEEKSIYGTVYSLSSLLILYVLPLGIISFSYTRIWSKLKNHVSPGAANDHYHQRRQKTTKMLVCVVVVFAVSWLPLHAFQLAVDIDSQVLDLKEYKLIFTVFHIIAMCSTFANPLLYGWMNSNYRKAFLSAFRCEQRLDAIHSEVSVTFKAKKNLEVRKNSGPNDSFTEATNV
# How it was run: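 Competition binding used membranes expressing the receptor (0.5 μg protein/well) in 50 mM HEPES, 5 mM MgCl2, 1 mM CaCl2, pH 7.4 with 0.2% ovalbumin, incubated 2 h at room temperature with shaking. Bound radioligand was collected by filtration onto PEI-soaked GF/C filters and counted; IC50 from nonlinear sigmoidal fits.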
# Solubility determination = assay: Solubility determination
# How it was run: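 First, TFA-salt peptide was added to 0.1 M sodium diphosphate (pH 6.4 or 7.0) to 10 mg/ml and shaken 2 h at room temperature. Next, insoluble material was filtered off. Finally, filtrate and control, each 1 mg/ml in 50% acetonitrile, were compared by reversed-phase chromatography.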
pKi [1],Sol6 (Solubility determination; pH 6),Sol7 (Solubility determination; pH 7),Structure (SMILES),"Sol6 (Solubility determination; solubility in the pH 6 condition, measured pH printed in the next column (6.0-6.3))","Sol7 (Solubility determination; solubility in the pH 7 condition, measured pH printed in the next column (6.6-6.9))"
8.88,8.8 mg/mL,8.8 mg/mL,"CC(C)CC(=O)N[C@@H](C)C(=O)N1CCC[C@H]1C(=O)N[C@@H](CCC(=O)O)C(=O)N[C@@H](CCCCNC(=O)CCCCCNC(=O)CC[C@H](NC(=O)CCCCCCCCCCCCCCCCC(=O)O)C(=O)O)C(=O)N1CCC[C@H]1C(=O)N[C@@H](CCC(=O)O)C(=O)N[C@@H](CCC(=O)O)C(=O)N[C@@H](CC(=O)O)C(=O)N[C@@H](C)C(=O)N[C@H](C(=O)N1CCC[C@H]1C(=O)N[C@@H](CCC(=O)O)C(=O)N[C@@H](CCC(=O)O)C(=O)N[C@H](C(=O)N[C@@H](CCC(N)=O)C(=O)N[C@@H](CCCNC(=N)N)C(=O)N[C@@H](Cc1ccc(O)cc1)C(=O)N[C@@H](Cc1ccc(O)cc1)C(=O)N[C@H](C(=O)N[C@@H](CO)C(=O)N[C@@H](CC(C)C)C(=O)N[C@@H](CCCNC(=N)N)C(=O)N[C@@H](Cc1c[nH]cn1)C(=O)N[C@@H](Cc1ccc(O)cc1)C(=O)N[C@@H](Cc1ccc(O)cc1)C(=O)N[C@@H](CC(N)=O)C(=O)N[C@@H](Cc1c[nH]c2ccccc12)C(=O)N[C@@H](CC(C)C)C(=O)N[C@H](C(=O)N[C@@H](CCCNC(=N)N)C(=O)N[C@@H](CCC(N)=O)C(=O)N[C@@H](CCCNC(=N)N)C(=O)N[C@@H](Cc1ccc(O)cc1)C(N)=O)[C@@H](C)O)C(C)C)[C@@H](C)O)[C@@H](C)O [Compound 152, N{alpha-4}-(3-methylbutanoyl)-N{epsilon-7}-(6-[(4S)-4-carboxy-4-(17-carboxyheptadecanamido)butanamido]hexanoyl)-[4A,7K,9E,13T,17T,18Q,22V,28Y,30W,31L]-hPYY(4-36)]",,
9.68,3.1 mg/mL,1.2 mg/mL,"CC(C)CC(=O)N[C@@H](C)C(=O)N1CCC[C@H]1C(=O)N[C@@H](CCC(=O)O)C(=O)N[C@@H](CCCCNC(=O)CCCCCNC(=O)CC[C@H](NC(=O)CCCCCCCCCCCCCCCCC(=O)O)C(=O)O)C(=O)N1CCC[C@H]1C(=O)NCC(=O)N[C@@H](C)C(=O)N[C@@H](CC(=O)O)C(=O)N[C@@H](C)C(=O)N[C@@H](CO)C(=O)N1CCC[C@H]1C(=O)N[C@@H](CCC(=O)O)C(=O)N[C@@H](CCCCN)C(=O)N[C@@H](CC(C)C)C(=O)N[C@@H](CCC(N)=O)C(=O)N[C@@H](CCCNC(=N)N)C(=O)N[C@@H](Cc1ccc(O)cc1)C(=O)N[C@@H](Cc1ccc(O)cc1)C(=O)N[C@H](C(=O)N[C@@H](CO)C(=O)N[C@@H](CC(C)C)C(=O)N[C@@H](CCCNC(=N)N)C(=O)N[C@@H](Cc1c[nH]cn1)C(=O)N[C@@H](Cc1ccc(O)cc1)C(=O)N[C@@H](Cc1ccc(O)cc1)C(=O)N[C@@H](Cc1c[nH]cn1)C(=O)N[C@@H](CCCCN)C(=O)N[C@@H](CC(C)C)C(=O)N[C@H](C(=O)N[C@@H](CCCNC(=N)N)C(=O)N[C@@H](CCC(N)=O)C(=O)N[C@@H](CCCNC(=N)N)C(=O)N[C@@H](Cc1ccc(O)cc1)C(N)=O)[C@@H](C)O)C(C)C [Compound 174, N{alpha-4}-(3-methylbutanoyl)-N{epsilon-7}-(6-[(4S)-4-carboxy-4-(17-carboxyheptadecanamido)butanamido]hexanoyl)-[4A,7K,10A,16K,18Q,22V,28Y,29H,30K,31L]-hPYY(4-36)] (Isovaleryl-APEK([Ahx-γGlu-C18 diacid])PGADASPEKLQRYYVSLRHYYHKLTRQRY-NH2)",,
8.63,9.2 mg/mL,9.2 mg/mL,"CC[C@H](C)[C@H](NC(=O)[C@H](Cc1ccc(O)cc1)NC(=O)[C@H](Cc1ccc(O)cc1)NC(=O)[C@H](CCCNC(=N)N)NC(=O)[C@H](CCC(N)=O)NC(=O)[C@H](CC(C)C)NC(=O)[C@H](CCC(=O)O)NC(=O)[C@H](CCC(=O)O)NC(=O)[C@@H]1CCCN1C(=O)[C@@H](NC(=O)[C@H](C)NC(=O)[C@H](CC(=O)O)NC(=O)[C@H](CCC(=O)O)NC(=O)[C@H](CCC(=O)O)NC(=O)[C@@H]1CCCN1C(=O)[C@H](CCCCNC(=O)CCCCCNC(=O)CC[C@H](NC(=O)CCCCCCCCCCCCCCCCC(=O)O)C(=O)O)NC(=O)[C@H](CCC(=O)O)NC(=O)[C@@H]1CCCN1C(=O)[C@H](C)NC(=O)CC(C)C)[C@@H](C)O)C(=O)N[C@@H](CO)C(=O)N[C@@H](CC(C)C)C(=O)N[C@@H](CCCNC(=N)N)C(=O)N[C@@H](Cc1c[nH]cn1)C(=O)N[C@@H](Cc1ccc(O)cc1)C(=O)N[C@@H](Cc1ccc(O)cc1)C(=O)N[C@@H](CC(N)=O)C(=O)N[C@@H](Cc1c[nH]c2ccccc12)C(=O)N[C@@H](CC(C)C)C(=O)N[C@H](C(=O)N[C@@H](CCCNC(=N)N)C(=O)N[C@@H](CCC(N)=O)C(=O)N[C@@H](CCCNC(=N)N)C(=O)N[C@@H](Cc1ccc(O)cc1)C(N)=O)[C@@H](C)O [Compound 66, N{alpha-4}-(3-methylbutanoyl)-N{epsilon-7}-(6-[(4S)-4-carboxy-4-(17-carboxyheptadecanamido)butanamido]hexanoyl)-[4A,7K,9E,13T,18Q,22I,28Y,30W,31L]-hPYY(4-36)]",,
8.23,9.7 mg/mL,10.0 mg/mL,"CC(C)CC(=O)N[C@@H](C)C(=O)N1CCC[C@H]1C(=O)N[C@@H](CCC(=O)O)C(=O)N[C@@H](CCCCNC(=O)CCCCCNC(=O)CC[C@H](NC(=O)CCCCCCCCCCCCCCCCC(=O)O)C(=O)O)C(=O)N1CCC[C@H]1C(=O)N[C@@H](CCC(=O)O)C(=O)N[C@@H](CCC(=O)O)C(=O)N[C@@H](CC(=O)O)C(=O)N[C@@H](C)C(=O)N[C@H](C(=O)N1CCC[C@H]1C(=O)N[C@@H](CCC(=O)O)C(=O)N[C@@H](CCC(=O)O)C(=O)N[C@@H](CC(C)C)C(=O)N[C@@H](CCC(N)=O)C(=O)N[C@@H](CCCNC(=N)N)C(=O)N[C@@H](Cc1ccc(O)cc1)C(=O)N[C@@H](Cc1ccc(O)cc1)C(=O)N[C@H](C(=O)NCC(=O)N[C@@H](CC(C)C)C(=O)N[C@@H](CCCNC(=N)N)C(=O)N[C@@H](Cc1c[nH]cn1)C(=O)N[C@@H](Cc1ccc(O)cc1)C(=O)N[C@@H](Cc1ccc(O)cc1)C(=O)N[C@@H](CC(N)=O)C(=O)N[C@@H](Cc1c[nH]c2ccccc12)C(=O)N[C@@H](CC(C)C)C(=O)N[C@H](C(=O)N[C@@H](CCCNC(=N)N)C(=O)N[C@@H](CCC(N)=O)C(=O)N[C@@H](CCCNC(=N)N)C(=O)N[C@@H](Cc1ccc(O)cc1)C(N)=O)[C@@H](C)O)C(C)C)[C@@H](C)O [Compound 44, N{alpha-4}-(3-methylbutanoyl)-N{epsilon-7}-(6-[(4S)-4-carboxy-4-(17-carboxyheptadecanamido)butanamido]hexanoyl)[4A,7K,9E,13T,18Q,22V,23G,28Y,30W,31L]-hPYY(4-36)]",,

Structure (SMILES),pKi [1],Sol6 (Solubility determination; pH 6),Sol7 (Solubility determination; pH 7),"Sol6 (Solubility determination; solubility in the pH 6 condition, measured pH printed in the next column (6.0-6.3))","Sol7 (Solubility determination; solubility in the pH 7 condition, measured pH printed in the next column (6.6-6.9))"
"CC(C)CC(=O)N[C@@H](C)C(=O)N1CCC[C@H]1C(=O)N[C@@H](CCC(=O)O)C(=O)N[C@@H](CCCCNC(=O)CCCCCNC(=O)CC[C@H](NC(=O)CCCCCCCCCCCCCCCCC(=O)O)C(=O)O)C(=O)N1CCC[C@H]1C(=O)N[C@@H](CCC(=O)O)C(=O)N[C@@H](CCC(=O)O)C(=O)N[C@@H](CC(=O)O)C(=O)N[C@@H](C)C(=O)N[C@H](C(=O)N1CCC[C@H]1C(=O)N[C@@H](CCC(=O)O)C(=O)N[C@@H](CCC(=O)O)C(=O)N[C@@H](CC(C)C)C(=O)N[C@@H](CCC(N)=O)C(=O)N[C@@H](CCCNC(=N)N)C(=O)N[C@@H](Cc1ccc(O)cc1)C(=O)N[C@@H](Cc1ccc(O)cc1)C(=O)N[C@H](C(=O)N[C@@H](CO)C(=O)N[C@@H](CC(C)C)C(=O)N[C@@H](CCCNC(=N)N)C(=O)N[C@@H](Cc1c[nH]cn1)C(=O)N[C@@H](Cc1ccc(O)cc1)C(=O)N[C@@H](Cc1ccc(O)cc1)C(=O)N[C@@H](CC(N)=O)C(=O)N[C@@H](Cc1c[nH]c2ccccc12)C(=O)N[C@@H](CC(C)C)C(=O)N[C@H](C(=O)N[C@@H](CCCCN)C(=O)N[C@@H](CCC(N)=O)C(=O)N[C@@H](CCCNC(=N)N)C(=O)N[C@@H](Cc1ccc(O)cc1)C(N)=O)[C@@H](C)O)C(C)C)[C@@H](C)O [Compound 180, N{alpha-4}-(3-methylbutanoyl)-N{epsilon-7}-(6-[(4S)-4-carboxy-4-(17-carboxyheptadecanamido)butanamido]hexanoyl)-[4A,7K,9E,13T,18Q,22V,28Y,30W,31L,33K]-hPYY(4-36)]",7.82,,,9.9 mg/mL,10.0 mg/mL
